Test results: patent US20230257396A1, “MACROCYCLES AND THEIR USE” (BLOSSOMHILL THERAPEUTICS, INC., priority 2020, published 2023)

Tests used:
Experiment in all cases: KINOMEscan kinase binding assay (Eurofins/DiscoveRx), % Ctrl
[1] = target: T1, kinases (Homo sapiens, UniProt P00533, G719C)
T1 construct: purchased Eurofins/DiscoveRx; host or cells: E. coli BL21-derived host (T7 phage display) for most kinases; HEK-293 for the rest
Procedure, shortened: (§1)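 Competition binding, 1 h RT: phage-tagged or HEK-293-expressed DNA-tagged kinase + immobilized ligand + compound. Eluate kinase by qPCR. % Ctrl = (test − positive ctrl)/(negative ctrl − positive ctrl) × 100; lower means stronger binding.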

[2] = target: T2, kinases (Homo sapiens, UniProt P00533, L858R)
T2 construct: purchased Eurofins/DiscoveRx; host or cells: E. coli BL21-derived host (T7 phage display) for most kinases; HEK-293 for the rest
Procedure, shortened: as §1

[3] = target: T3, kinases (Homo sapiens, UniProt P00533, L858R/T790M)
T3 construct: purchased Eurofins/DiscoveRx; host or cells: E. coli BL21-derived host (T7 phage display) for most kinases; HEK-293 for the rest
Procedure, shortened: as §1

[4] = target: T4, kinases (Homo sapiens, UniProt P10721, D816V)
T4 construct: purchased Eurofins/DiscoveRx; host or cells: E. coli BL21-derived host (T7 phage display) for most kinases; HEK-293 for the rest
Procedure, shortened: as §1

[5] = target: T5, kinases (Homo sapiens, UniProt P10721, V559D/V654A)
T5 construct: purchased Eurofins/DiscoveRx; host or cells: E. coli BL21-derived host (T7 phage display) for most kinases; HEK-293 for the rest
Procedure, shortened: as §1

[6] = target: T6, kinases (Homo sapiens, UniProt P07949)
T6 construct: purchased Eurofins/DiscoveRx; host or cells: E. coli BL21-derived host (T7 phage display) for most kinases; HEK-293 for the rest
Procedure, shortened: as §1

[7] = target: T7, kinases (Homo sapiens, UniProt P00519, Q252H)
T7 construct: purchased Eurofins/DiscoveRx; host or cells: E. coli BL21-derived host (T7 phage display) for most kinases; HEK-293 for the rest
Procedure, shortened: as §1

[8] = target: T8, kinases (Homo sapiens, UniProt P00519, F317I)
T8 construct: purchased Eurofins/DiscoveRx; host or cells: E. coli BL21-derived host (T7 phage display) for most kinases; HEK-293 for the rest
Procedure, shortened: as §1

[9] = target: T9, kinases (Homo sapiens, UniProt P36888, D835V)
T9 construct: purchased Eurofins/DiscoveRx; host or cells: E. coli BL21-derived host (T7 phage display) for most kinases; HEK-293 for the rest
T9 sequence (P36888 27-993 D835V): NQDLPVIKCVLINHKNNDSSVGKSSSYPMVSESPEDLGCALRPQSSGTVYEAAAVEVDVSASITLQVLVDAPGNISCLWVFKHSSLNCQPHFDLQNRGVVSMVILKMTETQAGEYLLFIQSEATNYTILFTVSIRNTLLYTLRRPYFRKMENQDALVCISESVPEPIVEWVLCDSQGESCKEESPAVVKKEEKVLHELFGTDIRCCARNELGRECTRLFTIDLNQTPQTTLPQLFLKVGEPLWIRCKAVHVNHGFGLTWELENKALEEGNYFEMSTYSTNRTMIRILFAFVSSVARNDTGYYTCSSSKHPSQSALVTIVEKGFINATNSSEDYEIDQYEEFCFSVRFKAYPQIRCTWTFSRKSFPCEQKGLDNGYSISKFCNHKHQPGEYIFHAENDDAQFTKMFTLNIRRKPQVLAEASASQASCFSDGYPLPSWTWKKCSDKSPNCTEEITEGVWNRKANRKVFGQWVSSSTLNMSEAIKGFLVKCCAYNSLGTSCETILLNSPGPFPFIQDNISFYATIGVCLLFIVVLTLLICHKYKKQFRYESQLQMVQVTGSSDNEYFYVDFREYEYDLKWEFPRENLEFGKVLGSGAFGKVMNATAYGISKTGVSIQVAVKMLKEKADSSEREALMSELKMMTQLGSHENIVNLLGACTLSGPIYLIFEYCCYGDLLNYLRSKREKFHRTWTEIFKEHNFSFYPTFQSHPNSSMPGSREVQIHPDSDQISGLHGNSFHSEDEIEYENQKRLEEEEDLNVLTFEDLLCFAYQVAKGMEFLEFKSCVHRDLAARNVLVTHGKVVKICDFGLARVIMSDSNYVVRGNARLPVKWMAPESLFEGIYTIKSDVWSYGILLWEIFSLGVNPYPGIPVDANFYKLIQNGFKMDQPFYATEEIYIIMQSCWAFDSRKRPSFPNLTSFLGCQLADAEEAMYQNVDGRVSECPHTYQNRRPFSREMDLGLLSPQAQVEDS
Procedure, shortened: as §1

[10] = target: T10, kinases (Homo sapiens, UniProt P00519)
T10 construct: purchased Eurofins/DiscoveRx; host or cells: E. coli BL21-derived host (T7 phage display) for most kinases; HEK-293 for the rest
Procedure, shortened: as §1

[11] = target: T11, kinases (Homo sapiens, UniProt P00533, DEL746-750)
T11 construct: purchased Eurofins/DiscoveRx; host or cells: E. coli BL21-derived host (T7 phage display) for most kinases; HEK-293 for the rest
Procedure, shortened: as §1

[12] = 1 μM; ABL1(Q252H)-nonphosphorylated
[13] = 1 μM; ABL1(Q252H)-phosphorylated
[14] = 1 μM; ABL1(F317I)-nonphosphorylated
[15] = 1 μM; ABL1(F317I)-phosphorylated

T5 sequence (P10721 26-976 V559D/V654A): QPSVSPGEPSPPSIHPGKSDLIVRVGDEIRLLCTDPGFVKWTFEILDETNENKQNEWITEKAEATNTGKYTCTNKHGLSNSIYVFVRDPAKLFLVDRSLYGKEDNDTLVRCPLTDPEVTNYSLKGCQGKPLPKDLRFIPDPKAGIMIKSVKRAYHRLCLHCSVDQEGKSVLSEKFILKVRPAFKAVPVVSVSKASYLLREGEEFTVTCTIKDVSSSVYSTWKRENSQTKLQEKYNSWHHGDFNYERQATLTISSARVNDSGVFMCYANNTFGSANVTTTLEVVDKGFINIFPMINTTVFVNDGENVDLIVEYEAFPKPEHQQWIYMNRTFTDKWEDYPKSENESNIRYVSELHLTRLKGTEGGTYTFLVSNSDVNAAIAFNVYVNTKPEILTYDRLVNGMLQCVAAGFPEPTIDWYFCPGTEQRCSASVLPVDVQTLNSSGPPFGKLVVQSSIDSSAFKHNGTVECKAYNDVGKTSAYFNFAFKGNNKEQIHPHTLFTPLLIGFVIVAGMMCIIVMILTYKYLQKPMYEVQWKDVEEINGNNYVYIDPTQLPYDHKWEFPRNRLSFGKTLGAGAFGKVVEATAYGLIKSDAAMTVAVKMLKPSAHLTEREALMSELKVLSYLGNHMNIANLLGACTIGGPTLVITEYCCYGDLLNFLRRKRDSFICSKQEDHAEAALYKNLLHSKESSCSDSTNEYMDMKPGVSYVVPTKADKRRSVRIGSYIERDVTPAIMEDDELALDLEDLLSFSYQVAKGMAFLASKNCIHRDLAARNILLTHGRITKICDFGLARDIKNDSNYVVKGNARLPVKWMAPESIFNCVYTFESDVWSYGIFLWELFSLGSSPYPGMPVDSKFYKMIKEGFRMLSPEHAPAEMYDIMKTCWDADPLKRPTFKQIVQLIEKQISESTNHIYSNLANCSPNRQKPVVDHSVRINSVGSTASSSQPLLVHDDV
T6 sequence (P07949 29-1114): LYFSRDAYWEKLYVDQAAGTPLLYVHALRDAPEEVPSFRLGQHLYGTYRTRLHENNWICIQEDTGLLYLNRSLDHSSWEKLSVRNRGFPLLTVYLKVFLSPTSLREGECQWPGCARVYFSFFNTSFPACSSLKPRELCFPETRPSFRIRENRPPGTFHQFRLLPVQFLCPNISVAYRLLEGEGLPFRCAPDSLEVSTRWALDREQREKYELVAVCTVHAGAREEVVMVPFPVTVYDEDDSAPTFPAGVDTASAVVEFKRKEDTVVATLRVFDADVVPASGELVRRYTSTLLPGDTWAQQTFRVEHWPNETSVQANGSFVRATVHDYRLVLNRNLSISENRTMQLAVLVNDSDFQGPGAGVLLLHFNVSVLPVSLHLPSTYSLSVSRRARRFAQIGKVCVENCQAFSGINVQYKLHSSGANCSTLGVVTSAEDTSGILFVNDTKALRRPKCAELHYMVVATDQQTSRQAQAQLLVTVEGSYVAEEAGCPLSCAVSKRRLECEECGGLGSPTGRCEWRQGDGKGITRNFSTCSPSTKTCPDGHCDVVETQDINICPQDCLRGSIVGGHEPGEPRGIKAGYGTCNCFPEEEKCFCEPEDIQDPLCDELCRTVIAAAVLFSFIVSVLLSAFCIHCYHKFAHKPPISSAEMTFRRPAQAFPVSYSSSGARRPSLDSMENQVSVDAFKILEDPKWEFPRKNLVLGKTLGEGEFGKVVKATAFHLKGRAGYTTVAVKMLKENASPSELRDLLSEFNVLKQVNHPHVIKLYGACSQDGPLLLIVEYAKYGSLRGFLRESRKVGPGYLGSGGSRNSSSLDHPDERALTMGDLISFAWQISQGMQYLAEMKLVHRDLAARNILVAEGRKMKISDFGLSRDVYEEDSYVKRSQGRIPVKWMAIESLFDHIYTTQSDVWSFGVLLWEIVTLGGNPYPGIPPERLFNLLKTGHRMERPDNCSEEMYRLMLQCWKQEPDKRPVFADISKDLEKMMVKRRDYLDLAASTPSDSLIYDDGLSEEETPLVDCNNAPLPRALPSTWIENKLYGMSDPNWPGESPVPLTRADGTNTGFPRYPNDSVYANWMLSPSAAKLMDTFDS
T4 sequence (P10721 26-976 D816V): as the sequence (P10721 26-976 V559D/V654A) above, with D534V, A629V, D791V counted along it

% Ctrl, EGFR(G719C) ([1]; 1 μM; EGFR(G719C)) [% Ctrl] | % Ctrl, EGFR(L858R) ([2]; 1 μM; EGFR(L858R)) [% Ctrl] | % Ctrl, EGFR(L858R, T790M) ([3]; 1 μM; EGFR(L858R, T790M)) [% Ctrl] | % Ctrl, KIT(D816V) ([4]; 1 μM; KIT(D816V)) [% Ctrl] | % Ctrl, KIT(V559D, V654A) ([5]; 1 μM; KIT(V559D, V654A)) [% Ctrl] | % Ctrl, RET ([6]; 1 μM; RET) [% Ctrl] | % Ctrl, ABL1(Q252H)-nonphosphorylated [7, 12] [% Ctrl] | % Ctrl, ABL1(Q252H)-phosphorylated [7, 13] [% Ctrl] | % Ctrl, ABL1(F317I)-nonphosphorylated [8, 14] [% Ctrl] | % Ctrl, ABL1(F317I)-phosphorylated [8, 15] [% Ctrl] | % Ctrl, FLT3(D835V) ([9]; 1 μM; FLT3(D835V)) [% Ctrl] | % Ctrl, ABL1-nonphosphorylated ([10]; 1 μM; ABL1-nonphosphorylated) [% Ctrl] | % Ctrl, ABL1-phosphorylated ([10]; 1 μM; ABL1-phosphorylated) [% Ctrl] | % Ctrl, EGFR(E746-A750del) ([11]; 1 μM; EGFR(E746-A750del)) [% Ctrl] | Structure (SMILES) | also measured
82 | 93 | 93 | 76 | 59 | 33 | 43 | 47 | 96 | 84 | 6 | 33 | 58 | 99 | CNC(=O)[C@H]1CN(C)C(=O)c2cc(C)[nH]c2/C=C2\C(=O)Nc3cc(Cl)c(cc32)OCCO1 [Ex. 135, [7R,16a(17)Z]-19-chloro-N,2,5-trimethyl-4,16-dioxo-4,5,6,7,9,10,15,16-octahydro-1H-12,14-(ethanediylidene)dipyrrolo[3,2-i:3′,4′-l][1,4,7]dioxazacyclopentadecine-7-carboxamide] | –
100 | 99 | 93 | 67 | 73 | 8 | 48 | 51 | 95 | 83 | 8.5 | 43 | 61 | 98 | Cc1cc2c([nH]1)/C=C1\C(=O)Nc3cc(Cl)c(cc31)OCCO[C@@H](C(=O)N(C)C)CN(C)C2=O [Ex. 137, [7R,16a(17)Z]-19-chloro-N,N,2,5-tetramethyl-4,16-dioxo-4,5,6,7,9,10,15,16-octahydro-1H-12,14-(ethanediylidene)dipyrrolo[3,2-i:3′,4′-l][1,4,7]dioxazacyclopentadecine-7-carboxamide] | –

The next lines start with the molecule.

Structure (SMILES) | % Ctrl, EGFR(G719C) ([1]; 1 μM; EGFR(G719C)) [% Ctrl] | % Ctrl, EGFR(L858R) ([2]; 1 μM; EGFR(L858R)) [% Ctrl] | % Ctrl, EGFR(L858R, T790M) ([3]; 1 μM; EGFR(L858R, T790M)) [% Ctrl] | % Ctrl, KIT(D816V) ([4]; 1 μM; KIT(D816V)) [% Ctrl] | % Ctrl, KIT(V559D, V654A) ([5]; 1 μM; KIT(V559D, V654A)) [% Ctrl] | % Ctrl, RET ([6]; 1 μM; RET) [% Ctrl] | % Ctrl, ABL1(Q252H)-nonphosphorylated [7, 12] [% Ctrl] | % Ctrl, ABL1(Q252H)-phosphorylated [7, 13] [% Ctrl] | % Ctrl, ABL1(F317I)-nonphosphorylated [8, 14] [% Ctrl] | % Ctrl, ABL1(F317I)-phosphorylated [8, 15] [% Ctrl] | % Ctrl, FLT3(D835V) ([9]; 1 μM; FLT3(D835V)) [% Ctrl] | % Ctrl, ABL1-nonphosphorylated ([10]; 1 μM; ABL1-nonphosphorylated) [% Ctrl] | % Ctrl, ABL1-phosphorylated ([10]; 1 μM; ABL1-phosphorylated) [% Ctrl] | % Ctrl, EGFR(E746-A750del) ([11]; 1 μM; EGFR(E746-A750del)) [% Ctrl] | also measured
Cc1cc2c([nH]1)/C=C1\C(=O)Nc3ccc(nc31)-c1ccccc1OCCCNC2=O [Ex.22, [3a(4)Z]-6-methyl-9,10,11,12-tetrahydro-1,18-(ethanediylidene)dipyrrolo[3,2-g:3′,4′-j][1,5,12]benzoxadiazacyclopentadecine-3,8(2H,5H)-dione] | 93 | 67 | 97 | 96 | 100 | 81 | 87 | 74 | 88 | 100 | 35 | 71 | 69 | 97 | –
CN1CCSCCOc2cc3c(cc2Cl)NC(=O)/C3=C\c2[nH]ccc2C1=O [Ex. 153] | – | – | – | – | – | – | – | – | – | – | – | – | – | – | % Ctrl, EGFR(G719C) ([1]; target EGFR(G719C); 1 μM): 49 % Ctrl; % Ctrl, EGFR(L858R) ([2]; target EGFR(L858R); 1 μM): 86 % Ctrl; % Ctrl, EGFR(L858R, T790M) ([3]; target EGFR(L858R, T790M); 1 μM): 79 % Ctrl; % Ctrl, KIT(D816V) ([4]; target KIT(D816V); 1 μM): 6.8 % Ctrl; % Ctrl, KIT(V559D, V654A) ([5]; target KIT(V559D, V654A); 1 μM): 13 % Ctrl; % Ctrl, RET ([6]; target RET; 1 μM): 2.4 % Ctrl; % Ctrl, ABL1(Q252H)-nonphosphorylated ([7]; target ABL1(Q252H)-nonphosphorylated; 1 μM): 1.8 % Ctrl; % Ctrl, ABL1(Q252H)-phosphorylated ([7]; target ABL1(Q252H)-phosphorylated; 1 μM): 7.9 % Ctrl; % Ctrl, ABL1(F317I)-nonphosphorylated ([8]; target ABL1(F317I)-nonphosphorylated; 1 μM): 20 % Ctrl; % Ctrl, ABL1(F317I)-phosphorylated ([8]; target ABL1(F317I)-phosphorylated; 1 μM): 37 % Ctrl; % Ctrl, FLT3(D835V) ([9]; target FLT3(D835V); 1 μM): 0.3 % Ctrl; % Ctrl, ABL1-nonphosphorylated ([10]; target ABL1-nonphosphorylated; 1 μM): 1.3 % Ctrl; % Ctrl, ABL1-phosphorylated ([10]; target ABL1-phosphorylated; 1 μM): 18 % Ctrl; % Ctrl, EGFR(E746-A750del) ([11]; target EGFR(E746-A750del); 1 μM): 56 % Ctrl
Cc1cc2c([nH]1)/C=C1\C(=O)Nc3ccc(cc31)-c1c(noc1C(C)C)COCCN(C)C2=O [Ex. 161, [3a(4)Z]-9-methyl-16-(propan-2-yl)-10,11-dihydro-2H,13H-1,17-(ethanediylidene)[1,2]oxazolo[4,3-m]dipyrrolo[3,2-f:3′,4′-i][1,4]oxazacyclopentadecine-3,8(5H,9H)-dione] | – | – | – | – | – | – | – | – | – | – | – | – | – | – | % Ctrl, EGFR(G719C) ([1]; 1 μM; target EGFR(G719C)): 89 % Ctrl; % Ctrl, EGFR(L858R) ([2]; 1 μM; target EGFR(L858R)): 100 % Ctrl; % Ctrl, EGFR(L858R, T790M) ([3]; 1 μM; target EGFR(L858R, T790M)): 96 % Ctrl; % Ctrl, KIT(D816V) ([4]; 1 μM; target KIT(D816V)): 100 % Ctrl; % Ctrl, KIT(V559D, V654A) ([5]; 1 μM; target KIT(V559D, V654A)): 87 % Ctrl; % Ctrl, RET ([6]; 1 μM; target RET): 97 % Ctrl; % Ctrl, ABL1(Q252H)-nonphosphorylated ([7]; 1 μM; target ABL1(Q252H)-nonphosphorylated): 100 % Ctrl; % Ctrl, ABL1(Q252H)-phosphorylated ([7]; 1 μM; target ABL1(Q252H)-phosphorylated): 79 % Ctrl; % Ctrl, ABL1(F317I)-nonphosphorylated ([8]; 1 μM; target ABL1(F317I)-nonphosphorylated): 100 % Ctrl; % Ctrl, ABL1(F317I)-phosphorylated ([8]; 1 μM; target ABL1(F317I)-phosphorylated): 91 % Ctrl; % Ctrl, FLT3(D835V) ([9]; 1 μM; target FLT3(D835V)): 23 % Ctrl; % Ctrl, ABL1-nonphosphorylated ([10]; 1 μM; target ABL1-nonphosphorylated): 100 % Ctrl; % Ctrl, ABL1-phosphorylated ([10]; 1 μM; target ABL1-phosphorylated): 97 % Ctrl; % Ctrl, EGFR(E746-A750del) ([11]; 1 μM; target EGFR(E746-A750del)): 87 % Ctrl
